Assays:
man = conditions: extremely high concentrations; cited from earlier work
[1] = tested on: uridine and thymidine phosphorylase; conditions: cited from earlier work
uninfected cells = conditions: cited from earlier work; for toxicity in culture: cell culture; for toxicity towards uninfected cells compared with deoxyuridine compounds: Greer et al. 1975
Herpes simplex = conditions: cited from earlier work
vesicular stomatitis = conditions: Shugar 1974; cited from earlier work
vaccinia = conditions: Shugar 1974; cited from earlier work
[2] = tested on: HSV infections of the eye; conditions: cited from earlier work; for antiviral activity against HSV infections of the eye: Kaufman 1962 / Heidelberger
recurrent genital Herpes = conditions: in vivo; cited from earlier work
human encephalitis = conditions: in vivo; cited from earlier work
[3] = in vivo; cited from earlier work
[4] = Incubation with acetate buffer (pH 4.5); format: physicochemical; conditions: 9 hours
Description: (§1) The results of incubation with HNO2 (pH 4.5) at room temperature were identical to those obtained above.

HEp-2 cells = test: Cytotoxicity vs HEp-2 cells (colony formation, % survival)
[5] = Incubation with HNO2 (pH 4.5) at room temperature; format: physicochemical
Description: as §1

[6] = biological target: T1, HSV-2 induced pyrimidine deoxyribonucleoside kinase (Human herpesvirus 2 strain HG52, UniProt P89446); test: Phosphorylation by HSV-2 induced pyrimidine deoxyribonucleoside kinase; format: biochemical; conditions: for nmoles phosphorylated/60min.: solutions a, c, d adjusted to the same O.D.
T1 construct: preparation not described in the excerpts
From the text: The following spots were eluted into H2 O and scanned from 225 to 350 nm: (a) standard, (b) F3 methyl dC standard, […] spot after cytidine deaminase treatment of F3 dT and […] spot after cytidine deaminase treatment of F3 methyl dC. The u.v. absorption profile of F3 dT derived from deamination of F3 methyl dC is identical to that obtained from authentic F3 dT.
Solutions a, c, and d, above, were adjusted to the same O. D. and used as substrates for HSV-2 induced pyrimidine deoxyribonucleoside kinase. Results:
Stock solutions of F3 dT and F3 methyl dC were made up and adjusted to the same concentration as the F3 dT and F3 methyl dC purified chromatographically (solutions a and b, respectively). Usually, F3 methyl dC is phosphorylated 1/6 of the extent that F3 dT is phosphorylated. […] This experiment was performed twice. Results:
Values for chromatographically purified samples are probably lower due to impurities arising from non-acid washed paper.

cytidine deaminase = test: Incubation with crude cytidine deaminase extract of HEP-2 cells (deamination); format: in vitro ADME, human; conditions: crude HEP-2 cytidine deaminase extract; Whatman 3MM chromatography
HSV-2 = test: Antiviral activity vs HSV-2 in HEp-2 cells (plaque assay in BHK cells); format: cell-based; conditions: 100 or 500 μg/ml
Description: The culture medium containing the nucleoside analogs at varying concentrations are added to the infected cultures. In the case of HEp-2 cells which contain high deaminase levels, H4 U is incorporated into the medium. At 48 hours, virus is harvested from the cultures by freezing and thawing. The virus produced from each culture is titred by plaque assay in BHK cells. By using this protocol the antiviral effectiveness of F3 methyl dC can be compared directly with the effectiveness of other antiviral agents. Furthermore, by including H4 U in the medium, the effectiveness of F3 methyl dC can be determined without deamination at the nucleoside level.

animal systems = conditions: usually must be administered very soon after infection; cited from earlier work

T1 sequence (P89446 whole entry): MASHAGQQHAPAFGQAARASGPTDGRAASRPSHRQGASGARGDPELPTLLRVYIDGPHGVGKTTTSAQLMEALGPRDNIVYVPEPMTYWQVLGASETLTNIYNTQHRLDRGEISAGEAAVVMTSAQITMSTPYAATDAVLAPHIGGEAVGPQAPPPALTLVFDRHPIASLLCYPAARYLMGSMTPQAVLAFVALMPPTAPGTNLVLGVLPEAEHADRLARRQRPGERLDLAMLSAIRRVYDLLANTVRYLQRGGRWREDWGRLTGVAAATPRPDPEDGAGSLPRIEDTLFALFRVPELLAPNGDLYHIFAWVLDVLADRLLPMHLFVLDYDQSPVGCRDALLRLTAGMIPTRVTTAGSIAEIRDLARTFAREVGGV

O=C1NC(O)CCN1[C@H]1C[C@H](O)[C@@H](CO)O1 (some centres unmarked) [2'-deoxytetrahydrouridine]
toxicity in man (man): not toxic in man at extremely high concentrations

C=CCc1cn([C@H]2C[C@H](O)[C@@H](CO)O2)c(=O)[nH]c1=O [5-allyl-2'-deoxyuridine]
substrate for catabolic enzymes uridine and thymidine phosphorylase [1]: substrates for the catabolic enzymes | toxicity in culture (uninfected cells): non-toxic in culture | antiviral activity against Herpes simplex in cell culture (Herpes simplex): do exhibit antiviral activity

CCc1cn([C@H]2C[C@H](O)[C@@H](CO)O2)c(=O)nc1N [5-ethyl-2'-deoxycytidine]
activity against vesicular stomatitis (vesicular stomatitis): no activity | antiviral activity against HSV infected cells (Herpes simplex; Shugar 1974): only a low antiviral activity | activity against vaccinia (vaccinia): no activity

CCc1cn([C@H]2C[C@H](O)[C@@H](CO)O2)c(=O)[nH]c1=O [5-ethyl-2'-deoxyuridine]
substrate for catabolic enzymes uridine and thymidine phosphorylase [1]: substrates for the catabolic enzymes | toxicity in culture (uninfected cells): non-toxic in culture | antiviral activity against Herpes simplex in cell culture (Herpes simplex): do exhibit antiviral activity

O=c1[nH]c(=O)n([C@H]2C[C@H](O)[C@@H](CO)O2)cc1F [5-fluorodeoxyuridine]
antiviral activity against HSV infections of the eye [2]: very little antiviral activity

CNc1cn([C@H]2C[C@H](O)[C@@H](CO)O2)c(=O)[nH]c1=O [5-methyl amino-2'-deoxyuridine]
substrate for catabolic enzymes uridine and thymidine phosphorylase [1]: substrates for the catabolic enzymes | toxicity in culture (uninfected cells): non-toxic in culture

Cc1cn([C@H]2C[C@H](O)[C@@H](CO)O2)c(=O)nc1N [5-methyl-2'-deoxycytidine]
antiviral activity against HSV infected cells compared with 5-methyl-2'-deoxyuridine (Herpes simplex; Lin and Prusoff 1977): less effective

O=c1[nH]c(=O)n([C@H]2C[C@H](O)[C@@H](CO)O2)cc1-c1ccccc1 [5-phenyl-2'-deoxyuridine]
substrate for catabolic enzymes uridine and thymidine phosphorylase [1]: substrates for the catabolic enzymes | toxicity in culture (uninfected cells): non-toxic in culture | antiviral activity against Herpes simplex in cell culture (Herpes simplex): do exhibit antiviral activity

CCCc1cn([C@H]2C[C@H](O)[C@@H](CO)O2)c(=O)[nH]c1=O [5-propyl-2'-deoxyuridine]
substrate for catabolic enzymes uridine and thymidine phosphorylase [1]: substrates for the catabolic enzymes | toxicity in culture (uninfected cells): non-toxic in culture | antiviral activity against Herpes simplex in cell culture (Herpes simplex): do exhibit antiviral activity

N#CSc1cn([C@H]2C[C@H](O)[C@@H](CO)O2)c(=O)[nH]c1=O [5-thiocyanato-2'-deoxyuridine]
substrate for catabolic enzymes uridine and thymidine phosphorylase [1]: substrates for the catabolic enzymes | toxicity in culture (uninfected cells): non-toxic in culture | antiviral activity against Herpes simplex in cell culture (Herpes simplex): do exhibit antiviral activity

Nc1ncnc2c1ncn2[C@@H]1O[C@H](CO)[C@@H](O)[C@@H]1O [Adenine arabinoside]
effect against recurrent genital Herpes (recurrent genital Herpes): neither effective against recurrent genital Herpes | incidence of death due to human encephalitis (human encephalitis): decrease the incidence of death

Nc1nc(=O)n([C@H]2C[C@H](O)[C@@H](CO)O2)cc1Br [BrdC, 5-bromo-2'-deoxycytidine]
toxicity towards uninfected cells compared with deoxyuridine compounds (uninfected cells): substantially less toxic towards uninfected cells

O=c1[nH]c(=O)n([C@H]2C[C@H](O)[C@@H](CO)O2)cc1C(F)(F)F [F3 dT, 5-trifluoromethyl-2'-deoxyuridine]
catabolism in the body [3]: rapid catabolism | modification in acetate buffer [4]: did not lead to modification | cytotoxicity at concentrations with antiviral activity (HEp-2 cells; ±H4 U): extremely cytotoxic | antiviral activity against HSV infections of the eye [2]: does exhibit antiviral activity against infections of the eye | change on incubation with HNO2 [5]: remained unaltered | toxicity towards uninfected cells (uninfected cells): exhibit toxicity towards uninfected cells | nmoles phosphorylated/4 hrs ([6]; chromatographically purified, value in parentheses (experiment performed twice)): 0.19 nmoles/4 hrs | nmoles phosphorylated/4 hrs ([6]; chromatographically purified, value outside parentheses): 0.16 nmoles/4 hrs | extent of phosphorylation compared with F3 dT ([6]; product of cytidine deaminase treatment of F3 methyl dC (d)): to the same extent as F3 dT | nmoles phosphorylated/60min. ([6]; listed as a): 0.07 nmoles/60min | nmoles phosphorylated/60min. ([6]; listed as c): 0.08 nmoles/60min | nmoles phosphorylated/60min. ([6]; listed as d): 0.05 nmoles/60min | nmoles phosphorylated/4 hrs ([6]; standard solutions, value in parentheses (experiment performed twice)): 0.57 nmoles/4 hrs | nmoles phosphorylated/4 hrs ([6]; standard solutions, value outside parentheses): 0.48 nmoles/4 hrs | chromatographic change on incubation with cytidine deaminase (cytidine deaminase): remained unchanged chromatographically

O=C1NC(O)CCN1[C@@H]1O[C@H](CO)[C@@H](O)[C@H]1O (some centres unmarked) [H4 U, tetrahydrouridine, reference compound]
cytotoxic activity of H4 U (HEp-2 cells; 100 or 500 μg/ml): does not display any cytotoxic activity | antiviral activity of H4 U (HSV-2): does not display any antiviral activity | toxicity in man (man): not toxic in man at extremely high concentrations

Nc1nc(=O)n([C@H]2C[C@H](O)[C@@H](CO)O2)cc1I [IdC, 5-iodo-2'-deoxycytidine]
treatment of Herpes Keratitis in humans compared with IdU ([2]; humans, Kurimoto et al. 1969): more effective | toxicity towards uninfected cells compared with deoxyuridine compounds (uninfected cells): substantially less toxic towards uninfected cells

O=c1[nH]c(=O)n([C@H]2C[C@H](O)[C@@H](CO)O2)cc1I [IdU, 5-iodo-2'-deoxyuridine]
catabolism in the body [3]: rapid catabolism | antiviral activity against HSV infections of the eye [2]: exhibits antiviral activity against HSV infections of the eye | effectiveness against Herpes Keratitis compared with F3 dT ([2]; in vivo): less effective than F3 dT | toxicity towards uninfected cells (uninfected cells): exhibit toxicity towards uninfected cells | effectiveness in human Herpes encephalitis (human encephalitis): ineffectiveness

O=C(O)CP(=O)(O)O [Phosphonacetic acid]
efficacy in animal systems (animal systems): effective in animal systems

Nc1ncnc2c1ncn2[C@@H]1O[C@H](COP(=O)(O)O)[C@@H](O)[C@@H]1O [ara-AMP]
effect against recurrent genital Herpes (recurrent genital Herpes): neither effective against recurrent genital Herpes

Reference: US4210638A, “Antiviral composition and method of treating virus diseases” (PCR, Inc., priority 1978, dated 1980)
